Test results published in patent US7662825B2, “N-pyrazinyl-phenylsulphonamides and their use in the treatment of chemokine mediated diseases” (AstraZeneca AB, priority 2002, dated 2010).

Row | melting point | Structure (SMILES)
1 | 163 to 165 °C | COc1nc(OC)c(NS(=O)(=O)c2cccc(Cl)c2Cl)nc1Cl [Example 66, 2,3-Dichloro-N-(6-chloro-3,5-dimethoxy-2-pyrazinyl)benzenesulphonamide]
2 | 150 to 151 °C | COc1nc(N2CCOCC2)c(Cl)nc1NS(=O)(=O)c1cccc(Cl)c1Cl [Example 67, 2,3-Dichloro-N-[6-chloro-3-methoxy-5-(4-morpholinyl)-2-pyrazinyl]benzenesulphonamide]
3 | 145 to 146 °C | COc1nc(N(C)C)c(Cl)nc1NS(=O)(=O)c1cccc(Cl)c1Cl [Example 69, 2,3-Dichloro-N-[6-chloro-5-dimethylamino-3-methoxy-2-pyrazinyl]benzenesulphonamide]
4 | 193 to 194 °C | COCCOc1nc(OC)c(NS(=O)(=O)c2cccc(Cl)c2Cl)nc1Cl [Example 70, 2,3-Dichloro-N-[6-chloro-3-methoxy-5-(2-methoxyethoxy)-2-pyrazinyl]benzenesulphonamide]
5 | 199 to 200 °C | COc1nc(-c2cnccn2)cnc1NS(=O)(=O)c1cccc(Cl)c1Cl [Example 72, 2,3-Dichloro-N-[6-methoxy-5-([2,2′]bipyrazinylyl)]benzenesulphonamide]
6 | 186 to 187 °C | COc1nc(Oc2ccc(C(=O)O)cc2)cnc1NS(=O)(=O)c1cccc(Cl)c1Cl [Example 73, 4-[5-(2,3-Dichlorobenzenesulphonylamino)-6-methoxy-2-pyrazinyloxy]benzoic acid]
7 | 181 to 182 °C | O=S(=O)(Nc1ncc(Cl)nc1Cl)c1cccc(Cl)c1Cl [Example 74, 2,3-Dichloro-N-(3,5-dichloro-2-pyrazinyl)benzenesulphonamide]
8 | 177 to 178 °C | COCCNc1nc(OC)c(NS(=O)(=O)c2cccc(Cl)c2Cl)nc1Cl [Example 75, 2,3-Dichloro-N-{6-chloro-3-methoxy-5-([2-methoxyethyl)amino]-2-pyrazinyl}benzenesulphonamide]
9 | 150 to 152 °C | COc1nc(NCCNC(C)=O)c(Cl)nc1NS(=O)(=O)c1cccc(Cl)c1Cl [Example 76, N-{2-[3-Chloro-5-(2,3-dichlorobenzenesulphonylamino)-6-methoxy-2-pyrazinylamino]ethyl}acetamide]
10 | 222 to 224 °C | N#Cc1cnc(NS(=O)(=O)c2cccc(Cl)c2Cl)c(OCc2cccnc2)n1 [Example 78, 2,3-Dichloro-N-[5-cyano-3-(3-pyridinylmethoxy)-2-pyrazinyl]benzenesulphonamide]
11 | 185 to 186 °C | CNc1nc(OC)c(NS(=O)(=O)c2cccc(Cl)c2Cl)nc1Cl [Example 79, 2,3-Dichloro-N-(6-chloro-3-methoxy-5-methylamino-2-pyrazinyl)benzenesulphonamide]
12 | 141 to 142 °C | COc1nc(SC)cnc1NS(=O)(=O)c1cccc(Cl)c1Cl [Example 80, 2,3-Dichloro-N-(3-methoxy-5-methylsulphanyl-2-pyrazinyl)benzenesulphonamide]
13 | 169 to 170 °C | COc1nc(-c2ccc(F)cc2F)cnc1NS(=O)(=O)c1cccc(Cl)c1Cl [Example 81, 2,3-Dichloro-N-[5-(2,4-difluorophenyl)-3-methoxy-2-pyrazinyl]benzenesulphonamide]
14 | 152 to 153 °C | COC(=O)CSc1cnc(NS(=O)(=O)c2cccc(Cl)c2Cl)c(OC)n1 [Example 82, [5-(2,3-Dichlorobenzenesulphonylamino)-6-methoxy-2-pyrazinylsulphanyl]acetic acid methyl ester]
15 | 138 to 140 °C | COc1nc(SCC(=O)O)cnc1NS(=O)(=O)c1cccc(Cl)c1Cl [Example 83, [5-(2,3-Dichlorobenzenesulphonylamino)-6-methoxy-2-pyrazinylsulphanyl]acetic acid]
16 | 119 to 120 °C | COc1nc(SCc2ccccc2Cl)cnc1NS(=O)(=O)c1cccc(Cl)c1Cl [Example 84, 2,3-Dichloro-N-[5-(2-chlorobenzylsulphanyl)-3-methoxy-2-pyrazinyl]benzenesulphonamide]
17 | 223 to 228 °C | Cc1cnc(NS(=O)(=O)c2cccc(Cl)c2Cl)c(OCc2ccc[n+]([O-])c2)n1 [Example 86]
18 | 226 to 229 °C (dec.) | O=S(=O)(Nc1ncc(Cl)nc1OCc1ccncc1)c1cccc(Cl)c1Cl [Example 87, 2,3-Dichloro-N-[5-chloro-3-(4-pyridinylmethoxy)-2-pyrazinyl]benzenesulphonamide]
19 | 147 to 148 °C | O=S(=O)(Nc1ncc(Cl)nc1OCc1ccccn1)c1cccc(Cl)c1Cl [Example 89, 2,3-dichloro-N-[5-chloro-3-(2-pyridinylmethoxy)-2-pyrazinyl]benzenesulphonamide]
20 | 140 to 141 °C | CSCCOc1nc(Cl)cnc1NS(=O)(=O)c1cccc(Cl)c1Cl [Example 90, 2,3-Dichloro-N-[5-chloro-3-(2-methylsulphanylethoxy)-2-pyrazinyl]benzenesulphonamide]

Row | melting point | Structure (SMILES)
21 | 214 to 216 °C (dec.) | Cc1ncccc1COc1nc(Cl)cnc1NS(=O)(=O)c1cccc(Cl)c1Cl [Example 92, 2,3-Dichloro-N-[5-chloro-3-(2-methyl-3-pyridinylmethoxy)-2-pyrazinyl]benzenesulphonamide]
22 | 158 to 159 °C | Cc1cccc(COc2nc(Cl)cnc2NS(=O)(=O)c2cccc(Cl)c2Cl)n1 [Example 93, 2,3-Dichloro-N-[S-chloro-3-(6-methyl-2-pyridinylmethoxy)-2-pyrazinyl]benzenesulphonamide]
23 | 192 to 193 °C | Cc1c(Cl)cccc1S(=O)(=O)Nc1ncc(Cl)nc1OCc1cccnc1 [Example 95, 3-Chloro-N-[5-chloro-3-(3-pyridinylmethoxy)-2-pyrazinyl]-2-methylbenzenesulphonamide]
24 | 177 to 178 °C | O=S(=O)(Nc1ncc(Cl)nc1OCc1cccnc1)c1cccc(Cl)c1F [Example 96, 3-Chloro-N-[5-chloro-3-(3-pyridinylmethoxy)-2-pyrazinyl]-2-fluorobenzenesulphonamide]
25 | 163 to 164 °C | COc1ccc(COc2nc(Cl)cnc2NS(=O)(=O)c2cccc(Cl)c2Cl)cc1 [Example 97, 2,3-Dichloro-N-[5-chloro-3-(4-methoxyphenylmethoxy)-2-pyrazinyl]benzenesulphonamide]
26 | 123 to 124 °C | O=S(=O)(Nc1nc(Cl)cnc1Br)c1cccc(Cl)c1Cl [Example 98]
27 | 203 to 204 °C | O=S(=O)(Nc1nc(Cl)cnc1OCc1cccnc1)c1cccc(Cl)c1Cl [Example 99, 2,3-Dichloro-N-[6-chloro-3-(3-pyridinylmethoxy)-2-pyrazinyl]benzenesulphonamide]
28 | 201 to 203 °C | O=S(=O)(Nc1nc(Cl)cnc1OCc1ccccn1)c1cccc(Cl)c1Cl [Example 100, 2,3-Dichloro-N-[6-chloro-3-(2-pyridinylmethoxy)-2-pyrazinyl]benzenesulphonamide]
29 | 175 to 176 °C | COC(=O)c1cccc(COc2nc(Cl)cnc2NS(=O)(=O)c2cccc(Cl)c2Cl)c1 [Example 104, 3-[6-Chloro-3-(2,3-dichlorobenzenesulphonylamino)-2-pyrazinyloxymethyl]benzoic acid methyl ester]
30 | 218 to 224 °C (dec.) | O=C(O)c1cccc(COc2nc(Cl)cnc2NS(=O)(=O)c2cccc(Cl)c2Cl)c1 [Example 105, 3-[6-Chloro-3-(2,3-dichlorobenzenesulphonylamino)-2-pyrazinyloxymethyl]benzoic acid]
31 | 162 to 163 °C | O=S(=O)(Nc1ncc(Cl)nc1OCc1cccc(CO)c1)c1cccc(Cl)c1Cl [Example 106, 2,3-Dichloro-N-[5-chloro-3-(3-hydroxymethylphenylmethoxy)-2-pyrazinyl]benzenesulphonamide]
32 | 167 to 168 °C | CNCc1cccc(COc2nc(Cl)cnc2NS(=O)(=O)c2cccc(Cl)c2Cl)c1 [Example 107, 2,3-Dichloro-N-[5-chloro-3-(3-methylaminomethylphenylmethoxy)-2-pyrazinyl]benzenesulphonamide]
33 | 196 to 198 °C | O=S(=O)(Nc1ncc(Cl)nc1OCc1cccc(CNCCO)c1)c1cccc(Cl)c1Cl [Example 108, 2,3-Dichloro-N-[5-chloro-3-{3-([2-hydroxyethylamino]methyl)phenylmethoxy}-2-pyrazinyl]benzenesulphonamide]
34 | 177 to 178 °C | O=S(=O)(Nc1ncc(Cl)nc1OCc1ccc(CO)cc1)c1cccc(Cl)c1Cl [Example 109, 2,3-Dichloro-N-[5-chloro-3-(4-hydroxymethylphenylmethoxy)-2-pyrazinyl]benzenesulphonamide]
35 | 202 to 205 °C | O=S(=O)(Nc1ncc(Cl)nc1OCc1ccc(CNCCO)cc1)c1cccc(Cl)c1Cl [Example 110, 2,3-Dichloro-N-[5-chloro-3-{4-([2-hydroxyethylamino]methyl)phenylmethoxy}-2-pyrazinyl]benzenesulphonamide]
36 | 160 to 161 °C | O=S(=O)(Nc1nccnc1OCc1ccc(CO)cc1)c1cccc(Cl)c1Cl [Example 111, 2,3-Dichloro-N-[3-(4-hydroxymethylphenylmethoxy)-2-pyrazinyl]benzenesulphonamide]
37 | 120 to 121 °C | COC(=O)c1cnc(NS(=O)(=O)c2cccc(Cl)c2Cl)c(OC)n1 [Example 113, 5-(2,3-Dichlorobenzenesuphonylamino)-6-methoxypyrazine-2-carboxylic acid, methyl ester]
38 | 192 to 193 °C | COc1nc(C(C)(C)O)cnc1NS(=O)(=O)c1cccc(Cl)c1Cl [Example 114, 2,3-Dichloro-N-[5-(1-hydroxy-1-methylethyl)-3-methoxy-2-pyrazinyl]benzenesulphonamide]
39 | 200 to 205 °C | COc1nc(OCCN)cnc1NS(=O)(=O)c1cccc(Cl)c1Cl [Example 115, N-[5-(2-Aminoethoxy)-3-methoxy-2-pyrazinyl]-2,3-dichlorobenzenesulphonamide]
40 | 185 to 190 °C | COc1nc(SCCN)c(Cl)nc1NS(=O)(=O)c1cccc(Cl)c1Cl [Example 116, N-{5-[(2-Aminoethyl)thio]-6-chloro-3-methoxy-2-pyrazinyl}-2,3-dichlorobenzenesulfonamide]

Row | Structure (SMILES) | melting point
41 | CCCCOc1nc(Cl)cnc1NS(=O)(=O)c1cccc(Cl)c1Cl [Example 91, N-(3-Butoxy-5-chloro-2-pyrazinyl)-2,3-dichlorobenzenesulphonamide] | 133 to 134 °C
